Test systems include EKVX NSCLC; OVCAR-4 ovarian; MDA-MB-435; M14 melanoma; HCT-15 colon; HL-60(TB) leukemia; TK-10 renal; SK-MEL-2 melanoma; U251 CNS; OVCAR-8 ovarian.
Assay in all cases: NCI tumour cell line growth inhibition, 48 h

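Briefly, cells in 96-well plates were exposed to five compound concentrations for 48 h, and endpoints were estimated by linear interpolation. Abbreviation: GI50, concentration required for 50% inhibition of growth. TGI marks complete inhibition of growth.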 Some results are limits rather than exact numbers.

`COc1ccc2c(c1)c(-c1nc(-c3c[nH]c4ncccc34)cs1)cn2CCCN1CCOCC1`: the GI50 in the assay on EKVX NSCLC was 3.01 µM; in the assay on OVCAR-4 ovarian it was 2.14 µM; in the assay on MDA-MB-435 it was 1.75 µM; in the assay with M14 melanoma, 1.77 µM; with HCT-15 colon it was 2.32 µM; with HL-60(TB) leukemia it was 2.11 µM. The GI50 is 3.48 µM in the assay on TK-10 renal, 1.88 µM in the assay on SK-MEL-2 melanoma and 2.25 µM in the assay with U251 CNS. The TGI with EKVX NSCLC worked out at 16.8 µM; in the assay on OVCAR-4 ovarian, 8.27 µM; with MDA-MB-435, 3.37 µM; in the assay on M14 melanoma, 3.58 µM; in the assay with HCT-15 colon, 7.7 µM; in the assay on HL-60(TB) leukemia, 4.36 µM. The TGI in the assay with TK-10 renal was found to be 13.6 µM; with SK-MEL-2 melanoma, 3.77 µM; with U251 CNS it was 5.09 µM.
Regarding `CC(=O)ON1CCCC(P(=O)(OCOC(=O)C(C)(C)C)OCOC(=O)C(C)(C)C)C1=O` (configuration not stated), the GI50 in the assay with OVCAR-8 ovarian is 0.324 µM; in the assay on EKVX NSCLC it was 0.94 µM; in the assay with OVCAR-4 ovarian, 1.19 µM; in the assay on MDA-MB-435, 2.02 µM; in the assay with M14 melanoma, 1.04 µM; with HCT-15 colon it was 0.534 µM. Moreover, the GI50 was 0.653 µM with HL-60(TB) leukemia, 0.977 µM in the assay with TK-10 renal, 1.58 µM in the assay with SK-MEL-2 melanoma and 0.458 µM in the assay on U251 CNS. Moreover, the TGI in the assay with EKVX NSCLC was 11.1 µM; with OVCAR-4 ovarian, 13.5 µM; in the assay on MDA-MB-435 it was 15 µM; in the assay on M14 melanoma it was 6.96 µM; in the assay on HCT-15 colon it was 6.71 µM; in the assay with HL-60(TB) leukemia it was 2.87 µM. Also, the figures for the TGI in the assay on TK-10 renal, with SK-MEL-2 melanoma and in the assay on U251 CNS were 6.89 µM, 6.91 µM and 5.58 µM, respectively.
With `COc1ccc(OC)c(NCC(=O)n2nc(/C=C\c3ccc(O)c(OC)c3)cc2/C=C\c2ccc(O)c(OC)c2)c1`, the GI50 in the assay with OVCAR-8 ovarian is 3.02 µM; in the assay with EKVX NSCLC, 3 µM; in the assay on OVCAR-4 ovarian it was 3.43 µM; in the assay on MDA-MB-435, 1.5 µM; in the assay with M14 melanoma, 2.02 µM; with HCT-15 colon, 2.09 µM. In addition, the GI50 in the assay on HL-60(TB) leukemia is 0.989 µM; in the assay with TK-10 renal it was 4.66 µM; with SK-MEL-2 melanoma, 2.3 µM; in the assay with U251 CNS, 2.36 µM. Besides, the TGI with OVCAR-8 ovarian is 11.9 µM; in the assay on EKVX NSCLC, 15.6 µM; in the assay on OVCAR-4 ovarian, 22.7 µM; in the assay on MDA-MB-435, 9.6 µM; with M14 melanoma it was 6.18 µM; with HCT-15 colon, 11.8 µM. Further, the TGI in the assay on HL-60(TB) leukemia turned out to be 5.05 µM; in the assay on TK-10 renal, 30.1 µM; in the assay with SK-MEL-2 melanoma, 7.04 µM; in the assay on U251 CNS, 12 µM.
On to `O=C1/C(=C\c2ccccc2)CN(C(=O)CCN2CCCCC2)C/C1=C/c1ccccc1`, for which the TGI amounted to 5.47 µM with OVCAR-8 ovarian; 10.6 µM in the assay on EKVX NSCLC; 4.34 µM in the assay on OVCAR-4 ovarian; 6.37 µM in the assay on MDA-MB-435; 4.66 µM in the assay on M14 melanoma; 4.12 µM in the assay on HCT-15 colon. The TGI in the assay on HL-60(TB) leukemia turned out to be 1.17 µM; with TK-10 renal, 10.9 µM; in the assay on SK-MEL-2 melanoma it was 4.44 µM; in the assay on U251 CNS, 1.86 µM.
Turning to `O=C(OCc1ccc2c(Br)cc(Br)c(O)c2n1)c1cc2ccccc2[nH]1`, the GI50 is 0.829 µM in the assay with OVCAR-8 ovarian; 1.46 µM in the assay with EKVX NSCLC; 0.959 µM in the assay with OVCAR-4 ovarian; 0.709 µM in the assay with MDA-MB-435; 0.763 µM in the assay on M14 melanoma; 0.314 µM with HCT-15 colon. The GI50 is 0.615 µM with HL-60(TB) leukemia, 1.18 µM in the assay on TK-10 renal, 1.48 µM with SK-MEL-2 melanoma and 1.4 µM in the assay on U251 CNS. Also, the TGI in the assay on OVCAR-8 ovarian is 2.82 µM; in the assay with EKVX NSCLC it was 3 µM; in the assay with OVCAR-4 ovarian it was 2.31 µM; with MDA-MB-435, 2.08 µM; with M14 melanoma, 2.15 µM; in the assay on HCT-15 colon, 1.03 µM. For the same compound, the TGI in the assay on HL-60(TB) leukemia was determined as 2.94 µM; in the assay on TK-10 renal it was 2.43 µM; in the assay with SK-MEL-2 melanoma, 3.2 µM; in the assay with U251 CNS, 2.91 µM.
Turning to `O=C1Oc2ccccc2C(=O)/C1=C1/C=C(c2ccccc2)SS1`, the TGI with OVCAR-8 ovarian, in the assay with EKVX NSCLC, in the assay with OVCAR-4 ovarian, with MDA-MB-435, in the assay on M14 melanoma and in the assay on HCT-15 colon was greater than 100 µM throughout. Moreover, the TGI with HL-60(TB) leukemia was 45.2 µM; in the assay with TK-10 renal, greater than 100 µM; with SK-MEL-2 melanoma it was greater than 100 µM; with U251 CNS, greater than 100 µM.
Regarding `O=C(/C=C/C12c3ccccc3C(c3ccccc31)C1C(=O)NC(=O)C12)c1ccccn1` (configuration not stated), the GI50 is 1.8 µM in the assay on OVCAR-8 ovarian; 1.91 µM in the assay on EKVX NSCLC; 2.69 µM in the assay on OVCAR-4 ovarian; 1.77 µM in the assay on MDA-MB-435; 1.83 µM in the assay on M14 melanoma; 1.17 µM in the assay with HCT-15 colon. The GI50 in the assay on HL-60(TB) leukemia is 1.02 µM; in the assay with TK-10 renal, 2.35 µM; in the assay with SK-MEL-2 melanoma it was 1.76 µM; in the assay on U251 CNS it was 1.4 µM. Moreover, the TGI in the assay on OVCAR-8 ovarian was found to be 5.54 µM; in the assay with EKVX NSCLC it was 4.93 µM; in the assay with OVCAR-4 ovarian, 11.7 µM; in the assay with MDA-MB-435 it was 5.15 µM; with M14 melanoma, 4.12 µM; in the assay with HCT-15 colon, 3.35 µM. Further, the TGI was found to be 3.41 µM in the assay with HL-60(TB) leukemia, 5.31 µM in the assay on TK-10 renal, 3.95 µM in the assay on SK-MEL-2 melanoma and 2.74 µM in the assay with U251 CNS.
In the case of `Cc1ccc(O)cc1Nc1ccnc2ccc(S(C)(=O)=O)cc12`, the GI50 is 3.53 µM in the assay on OVCAR-8 ovarian; 11.9 µM in the assay with EKVX NSCLC; greater than 25 µM with OVCAR-4 ovarian; 4.92 µM in the assay with MDA-MB-435; 0.939 µM in the assay on M14 melanoma; 11.4 µM in the assay with HCT-15 colon. Further, the GI50 is 10.2 µM in the assay on HL-60(TB) leukemia, 0.484 µM in the assay on TK-10 renal, 6.91 µM in the assay on SK-MEL-2 melanoma and 5.22 µM in the assay with U251 CNS. Also, the TGI was 16.4 µM in the assay with OVCAR-8 ovarian; greater than 25 µM with EKVX NSCLC; greater than 25 µM with OVCAR-4 ovarian; greater than 25 µM in the assay on MDA-MB-435; greater than 21.8 µM with M14 melanoma; greater than 25 µM with HCT-15 colon. For the same compound, the TGI with HL-60(TB) leukemia was greater than 25 µM; with TK-10 renal, 2.23 µM; in the assay on SK-MEL-2 melanoma, 24.9 µM; in the assay with U251 CNS, greater than 25 µM.
For the compound `O=C1CC(c2ccccc2)Oc2ccccc21` (configuration not stated), the TGI with OVCAR-8 ovarian, in the assay on EKVX NSCLC, in the assay with OVCAR-4 ovarian, in the assay with MDA-MB-435, with M14 melanoma and with HCT-15 colon was greater than 100 µM in each case. Moreover, the TGI in the assay on HL-60(TB) leukemia is 49.5 µM; with TK-10 renal, greater than 100 µM; in the assay with SK-MEL-2 melanoma, 86.7 µM; in the assay with U251 CNS, greater than 100 µM.

(Values after PubChem BioAssay (NCI).)
